# Laboratory results reported in patent US8492379B2, “Translocator protein ligands” (The University of Sydney, priority 2007, dated 2013).
# Molecular target: TSPO (Rattus norvegicus (Rat), UniProt P16257)
# Assay: In vitro binding affinity, 3H-PK11195 displacement in kidney mitochondria
# Conditions: 0.6 nM 3H-PK11195, mitochondria from kidneys of male Wistar rats, 90 min at 4° C.
# Description: 3H-PK11195 (specific activity 322 GBq/mmol) and 3H-Ro 15-1788 (specific activity 311 GBq/mmol) were purchased from Dupont-New England Nuclear. For binding studies, mitochondria were prepared as described in Trapani G., et al. J Med Chem. 1997; 40:3109-3118, with minor modifications as described here, from the kidneys of male Wistar rats killed by cervical dislocation. The kidneys were homogenized in 20 volumes of ice-cold 50 mM Tris-HCl (pH 7.4), 0.32 M sucrose, and 1 mM ethylenediaminetetraacetic acid (buffer A) containing protease inhibitors (benzamidine at […], bacitracin at […], and soybean trypsin inhibitor at […]) with a Teflon (DuPont) pestle in a glass homogenizer and centrifuged at 600 g for 10 min at 4° C. The resulting supernatant was centrifuged at 10,000 g for 10 min at 4° C. The pellet was suspended in 20 volumes of ice cold buffer A and centrifuged at 10,000 g for 10 min at 4° C. The crude mitochondrial pellet was frozen at −20° C. until the time of the assay or incubated with 0.6 nM 3H-PK11195 in 50 mM Tris-HCl (pH 7.4) (buffer B) with a range of concentrations of the tested compounds (0.1 nM-10 mM) in a total volume of 0.5 mL for 90 min at 4° C. The incubation was terminated by dilution to 5 mL with icecold buffer B; this step was followed immediately by rapid filtration through glass fiber Whatman GF/C filters. The filters were washed (2.5 mL) with buffer B, and the amount of radioactivity retained on the filters was determined with a Packard 1600 TR liquid scintillation counter at 66% efficiency. Nonspecific binding was estimated for each sample in the presence of unlabeled 1 mM PK11195. The 50% inhibitory concentrations were determined, and the dissociation constant (Ki) values were derived according to a previously derived equation (Cheng Y., et al. Biochem Pharmacol. 1973; 22:3099-3108). The protein concentration was estimated by the method of Lowry et al. (J Biol Chem. 1951; 193:265-275) with bovine serum albumin (Sigma-Aldrich) as the standard.
# Sequence of TSPO (P16257 whole entry, looked up): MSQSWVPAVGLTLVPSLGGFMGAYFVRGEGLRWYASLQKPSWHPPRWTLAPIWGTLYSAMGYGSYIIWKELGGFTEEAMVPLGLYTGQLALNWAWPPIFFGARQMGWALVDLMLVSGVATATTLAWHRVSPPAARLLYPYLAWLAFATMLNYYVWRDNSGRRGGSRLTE
row,Structure (SMILES),Ki [nM]
1,CCN(CC)C(=O)Cc1c(-c2ccc(F)cc2)nc2c(C)cc(C)nn12,2.4
2,CCN(CC)C(=O)C(Oc1ccc(Cl)cc1-n1cccc1)c1ccc(OC)cc1 (centres unmarked),5.7
3,CCN(CC)C(=O)C(Oc1cccnc1-n1cccc1)c1ccc(OC)cc1 (centres unmarked),4
4,CCN(CC)C(=O)Cc1c(-c2ccc(Cl)cc2)nc2c(C)cc(C)nn12,0.45
5,CCN(CC)C(=O)Cc1c(-c2ccc(Br)cc2)nc2c(C)cc(C)nn12,0.97
6,CCN(CC)C(=O)C(Oc1ccccc1-n1cccc1)c1ccc(OC)cc1 (centres unmarked),5
7,CCN(CC)C(=O)Cc1c(-c2ccc(C)cc2)nc2c(C)cc(C)nn12,0.46

# Molecular target: TSPO in microglia (Rattus norvegicus (Rat), UniProt P16257)
# Assay: not given
# Conditions: quinolinic acid-injected rat striatum; cited from earlier work
# Sequence of TSPO in microglia (P16257 whole entry): as the sequence (P16257 whole entry, looked up) above
row,Structure (SMILES),effect on microglial activation and neuronal death
1,CCC(C)N(C)C(=O)c1cc2ccccc2c(-c2ccccc2Cl)n1 (centres unmarked) [PK 11195],reduces microglial activation and neuronal death
